Test results published in ChEMBL document CHEMBL5375981, “Enhanced Tumor Targeting and Penetration of Proteolysis-Targeting Chimeras through iRGD Peptide Conjugation: A Strategy for Precise Protein Degradation in Breast Cancer” (J Med Chem, 2023).
The source made the active and inactive calls. The calls are words filed in the database; no cut-off is given here.

Tests used:
Mus musculus [1] = test: In vivo induction of BRD4 degradation in BALB/C mouse xenografted with human MDA-MB-231 cells assessed as reduction in BRD4 level by measuring reduction in green fluorescence at 5 to 8 uM, iv administered every other day and measured after 21 days by immunofluorescence analysis; assay type: functional, organism-based; details: dose 5-8 µM, time 21.0 day
[2] = biological target: Bromodomain-containing protein 4 (Homo sapiens) (UniProt O60885); test: (§1) Induction of BRD4 degradation in human MDA-MB-231 cells harboring high integrin alphaVbeta3 expression assessed as reduction in BRD4 levels at 500 nM incubated for 12 hrs by immunofluorescence staining based confocal microscopic analysis; assay type: cell-based
[3] = Toxicity in BALB/C mouse xenografted with human MDA-MB-231 cells assessed as effect on spleen weight at 5 to 8 uM, iv administered every other day for 21 days; assay type: organism-based; details: in vivo, 504 h, dose 5-8 µM, time 21 day
MDA-MB-231 [4] = test: Antiproliferative activity against human MDA-MB-231 cells harboring high integrin alphaVbeta3 expression assessed as inhibition of cell growth incubated for 72 hrs by CCK-8 assay; assay type: functional, cell-based; details: MDA-MB-231, 72 h
[5] = Toxicity in BALB/C mouse xenografted with human MDA-MB-231 cells assessed as kidney damage at 5 to 8 uM, iv administered every other day for 21 days and measured 37 days post treatment by H and E staining based assay; assay type: organism-based; details: in vivo, 1392 h, dose 5-8 µM, time 58 day
MCF7 = test: Antiproliferative activity against human MCF7 cells harboring low integrin alphaVbeta3 expression assessed as inhibition of cell growth incubated for 72 hrs by CCK-8 assay; assay type: functional, cell-based; details: MCF7, 72 h
MDA-MB-231 [6] = test: Antitumor activity against human MDA-MB-231 cells xenografted in BALB/C nude mouse assessed as disruption of tumor blood vessel wall at 5 uM, iv administered every other day and measured after 21 days by H and E staining based assay; assay type: functional, organism-based; details: time 21.0 day
MDA-MB-231 [7] = test: Antitumor activity against human MDA-MB-231 cells xenografted in BALB/C nude mouse assessed as tumor growth inhibition at 8 uM, iv administered every other day and measured after 21 days by vernier caliper method relative to control; assay type: functional; details: MDA-MB-231, 504 h, time 21 day, read-out: TGI
Mus musculus [8] = test: In vivo induction of BRD4 degradation in BALB/C mouse xenografted with human MDA-MB-231 cells assessed as reduction in BRD4 level in tumor at 5 to 8 uM, iv administered every other day and measured after 21 days by immunohistochemistry analysis; assay type: functional, organism-based; details: dose 5-8 µM, time 21.0 day
Homo sapiens [9] = species on record: Homo sapiens; test: Antitumor activity against patient-derived Breast cancer organoid assessed as reduction in number of proliferating cells by measuring reduction in red fluorescence at 0.5 uM incubated for approximately 3 days by Edu incorporation assay; assay type: functional, tissue-based; details: time 3.0 day
[10] = biological target: Bromodomain-containing protein 4 (Homo sapiens) (UniProt O60885); test: Induction of BRD4 degradation in human MDA-MB-231 cells harboring high integrin alphaVbeta3 expression at 0.1 to 1 uM incubated for 24 hrs by Western blot analysis; assay type: cell-based; details: dose 0.1-1 µM
[11] = Toxicity in BALB/C mouse xenografted with human MDA-MB-231 cells assessed as effect on heart weight at 5 to 8 uM, iv administered every other day for 21 days; assay type: organism-based; details: in vivo, 504 h, dose 5-8 µM, time 21 day
[12] = biological target: Bromodomain-containing protein 4 (Homo sapiens) (UniProt O60885); test: Induction of BRD4 degradation in human MDA-MB-231 cells harboring high integrin alphaVbeta3 expression at 300 nM incubated for 16 to 20 hrs by Western blot analysis; assay type: cell-based; details: time 16-20 hrs
[13] = biological target: Bromodomain-containing protein 4 (Homo sapiens) (UniProt O60885); test: as §1, with “pretreated with integrin receptor antagonist cilengitide” for “incubated”, “for 2 hrs followed by compound addition and measured after” for “for”; assay type: cell-based
[14] = Toxicity in BALB/C mouse xenografted with human MDA-MB-231 cells assessed as lung damage at 5 to 8 uM, iv administered every other day for 21 days and measured 37 days post treatment by H and E staining based assay; assay type: organism-based; details: in vivo, 1392 h, dose 5-8 µM, time 58 day
[15] = Antitumor activity against patient-derived Breast cancer organoid assessed as inhibition of cell growth incubated for approximately 3 to 5 days by CCK-8 assay; assay type: functional, tissue-based; details: Homo sapiens
MDA-MB-231 [16] = test: Antitumor activity against human MDA-MB-231 cells xenografted in BALB/C nude mouse assessed as appearance of collapsed extravascular tumor tissue at 5 uM, iv administered every other day and measured after 21 days by H and E staining based assay; assay type: functional, organism-based; details: time 21.0 day
L02 = test: Antiproliferative activity against human L02 cells harboring minimal integrin alphaVbeta3 expression assessed as inhibition of cell growth incubated for 72 hrs by CCK-8 assay; assay type: functional, cell-based; details: L02, 72 h
[17] = Toxicity in BALB/C mouse xenografted with human MDA-MB-231 cells assessed as effect on kidney weight at 5 to 8 uM, iv administered every other day for 21 days; assay type: organism-based; details: in vivo, 504 h, dose 5-8 µM, time 21 day
[18] = biological target: Bromodomain-containing protein 4 (Homo sapiens) (UniProt O60885); test: as §1, with “pretreated with NRP-1 inhibitor EG00229” for “incubated”, “for 2 hrs followed by compound addition and measured after” for “for”; assay type: cell-based
[19] = Toxicity in BALB/C mouse xenografted with human MDA-MB-231 cells assessed as effect on lung weight at 5 to 8 uM, iv administered every other day for 21 days; assay type: organism-based; details: in vivo, 504 h, dose 5-8 µM, time 21 day
[20] = Toxicity in BALB/C mouse xenografted with human MDA-MB-231 cells assessed as liver damage at 5 to 8 uM, iv administered every other day for 21 days and measured 37 days post treatment by H and E staining based assay; assay type: organism-based; details: in vivo, 1392 h, dose 5-8 µM, time 58 day
[21] = biological target: Bromodomain-containing protein 4 (Homo sapiens) (UniProt O60885); test: Induction of BRD4 degradation in human MCF7 cells harboring low integrin alphaVbeta3 expression at 300 nM incubated for 12 hrs by immunofluorescence staining based confocal microscopic analysis; assay type: cell-based
MDA-MB-231 [22] = test: Antitumor activity against human MDA-MB-231 cells xenografted in BALB/C nude mouse assessed as inhibition of cell proliferation by measuring reduction in number of Ki67-stained cells at 5 to 8 uM, iv administered every other day and measured after 21 days by immunohistochemistry; assay type: functional, organism-based; details: dose 5-8 µM, time 21.0 day
[23] = Drug release in PBS assessed as increase in (2S)-1-((R)-2-(tert-butyl)-17-((S)-4-(4-chlorophenyl)-2,3,9-trimethyl-6H-thieno[3,2-f][1,2,4]triazolo[4,3-a][1,4]diazepin-6-yl)-4,16-dioxo-6,9,12-trioxa-3,15-diazaheptadecanoyl)-4-hydroxy-N-((S)-1-(4-(4-methylthiazol-5-yl)phenyl)ethyl)pyrrolidine-2-carboxamide concentration at 50 uM in presence of GSH by LC-MS analysis; assay type: ADME; details: buffer, TDE = time-dependent effect
[24] = Toxicity in BALB/C mouse xenografted with human MDA-MB-231 cells assessed as adverse reactions at 5 to 8 uM, iv administered for 21 days and measured every 3 days; assay type: organism-based; details: in vivo, 504 h, dose 5-8 µM, time 21 day
[25] = Toxicity in BALB/C mouse xenografted with human MDA-MB-231 cells assessed as heart damage at 5 to 8 uM, iv administered every other day for 21 days and measured 37 days post treatment by H and E staining based assay; assay type: organism-based; details: in vivo, 1392 h, dose 5-8 µM, time 58 day
Homo sapiens [26] = species on record: Homo sapiens; test: Antitumor activity against patient-derived Breast cancer organoid assessed as increase in number of apoptotic cells by measuring reduction in green fluorescence at 0.5 to 1 uM incubated for approximately 3 to 5 days by acridine orange/ethidium bromide double staining ssay; assay type: functional, cell-based; details: dose 0.5-1 µM, time 3-5 day
Homo sapiens [27] = species on record: Homo sapiens; test: Antitumor activity against patient-derived Breast cancer organoid assessed as inhibition of cell growth at 0.5 to 1 uM incubated for 3 days by CCK-8 assay; assay type: functional, tissue-based; details: dose 0.5-1 µM, time 3.0 day
[28] = Toxicity in BALB/C mouse xenografted with human MDA-MB-231 cells assessed as effect on liver weight at 5 to 8 uM, iv administered every other day for 21 days; assay type: organism-based; details: in vivo, 504 h, dose 5-8 µM, time 21 day

SMILES: Cc1ncsc1-c1ccc([C@H](C)NC(=O)[C@@H]2C[C@@H](OC(=O)OCCSSCCOC(=O)CCC(=O)NCCCC[C@@H]3NC(=O)[C@H](CC(=O)O)NC(=O)CNC(=O)[C@H](CCCNC(=N)N)NC(=O)[C@@H](N)CSSC[C@@H](C(=O)O)NC(=O)[C@H](CC(=O)O)NC(=O)[C@@H]4CCCN4C(=O)CNC3=O)CN2C(=O)[C@@H](NC(=O)COCCOCCOCCNC(=O)C[C@@H]2N=C(c3ccc(Cl)cc3)c3c(sc(C)c3C)-n3c(C)nnc32)C(C)(C)C)cc1
- Activity (Mus musculus [1]): Active
- Activity [2]: Active
- Activity [3]: Non-Toxic
- IC50 (MDA-MB-231 [4]): 88 nM
- Activity [5]: Non-Toxic
- IC50 (MCF7): 260 nM
- Activity (MDA-MB-231 [6]): Active
- inhibition in vivo at 8 µM (MDA-MB-231 [7]): 81.5%
- Activity (Mus musculus [8]): Active
- Activity (Homo sapiens [9]): Active
- Activity [10]: Active
- Activity [11]: Non-Toxic
- Activity [12]: Active
- Activity [13]: inactive
- Activity [14]: Non-Toxic
- IC50 [15]: 950 nM
- Activity (MDA-MB-231 [16]): Active
- IC50 (L02): 1500 nM
- Activity [17]: Non-Toxic
- Activity [18]: inactive
- Activity [19]: Non-Toxic
- Activity [20]: Non-Toxic
- Activity [21]: inactive
- Activity (MDA-MB-231 [22]): Active
- Drug metabolism [23]: Tde
- Activity [24]: Non-Toxic
- Activity [25]: Non-Toxic
- Activity (Homo sapiens [26]): Active
- Activity (Homo sapiens [27]): Active
- Activity [28]: Non-Toxic
